{"source": "patent US12474353B2", "about": "“Methods and materials for assessing and treating obesity” (Mayo Foundation for Medical Education and Research, priority 2017, dated 2025)", "conditions": "human, in vivo", "method": "The applicability of obesity-related phenotypes as actionable biomarkers was tested in three pilot, proof of concept studies (see, e.g., Acosta et al., 2015 Gastroenterology 148:537-546; Acosta et al., 2015 Physiol Rep 3; and Halawi et al., 2017 Lancet Gastroenterol Hepatol 2:890-899). First, in a single-center, randomized, parallel-group, double-blind, placebo-controlled, 14-day study, the effects of Phentermine-topiramate-ER (PhenTop) (7.5/46 mg, orally, daily) on gastric emptying (GE) and volume, satiation, satiety, and fasting and postprandial GI hormones was evaluated in 24 obese adults. […] Subsequently, in a prospective, NIH-funded, randomized, placebo controlled clinical trial to study the effects of liraglutide 3 mg, SQ, over 16 weeks on obesity phenotypes and weight in 40 obese patients. […]\nA prospective, randomized clinical trial with liraglutide, a long-acting GLP-1 receptor agonist, was completed. […] At baseline and after 16 weeks' treatment, weight, gastric emptying of solids (GES, primary endpoint), large fasting gastric volumes, satiation, and satiety were measured. GES was also measured at 5 weeks. […] Effect of liraglutide on GES T1/2 at 5 and 16 weeks in the liraglutide group was analyzed by paired t-test. Seventeen participants were analyzed in the liraglutide group (n=19 randomized) and 18 in the placebo group (n=21 randomized)."}
{"molecule": "CCCCCCCCCCCCCCCC(=O)N[C@@H](CCC(=O)NCCCC[C@H](NC(=O)[C@H](C)NC(=O)[C@H](C)NC(=O)[C@H](CCC(N)=O)NC(=O)CNC(=O)[C@H](CCC(=O)O)NC(=O)[C@H](CC(C)C)NC(=O)[C@H](Cc1ccc(O)cc1)NC(=O)[C@H](CO)NC(=O)[C@H](CO)NC(=O)[C@@H](NC(=O)[C@H](CC(=O)O)NC(=O)[C@H](CO)NC(=O)[C@@H](NC(=O)[C@H](Cc1ccccc1)NC(=O)[C@@H](NC(=O)CNC(=O)[C@H](CCC(=O)O)NC(=O)[C@H](C)NC(=O)[C@@H](N)Cc1cnc[nH]1)[C@@H](C)O)[C@@H](C)O)C(C)C)C(=O)N[C@@H](CCC(=O)O)C(=O)N[C@@H](Cc1ccccc1)C(=O)N[C@H](C(=O)N[C@@H](C)C(=O)N[C@@H](Cc1c[nH]c2ccccc12)C(=O)N[C@@H](CC(C)C)C(=O)N[C@H](C(=O)N[C@@H](CCCNC(=N)N)C(=O)NCC(=O)N[C@@H](CCCNC(=N)N)C(=O)NCC(=O)O)C(C)C)[C@@H](C)CC)C(=O)O", "note": "[liraglutide]", "values": [{"measurement": "Nausea (most common adverse event)", "result": 63.2, "unit": "%"}]}
